Patent US6916446B1, “Bioreactor method, apparatus and product thereby” (The United States of America as represented by the …, priority 2002, dated 2005)
Values joined by “and” are separate entries in the source; they are usually repeats but may differ in a detail not shown here. Equal entries are not always repeated. Where two headings read alike, the source gives them in different places.

Assays:
strain IMB-1 [1] = experiment: Closed-system re-circulating bioreactor with washed cell suspension of strain IMB-1; type: cell-based, strain IMB-1 (ATCC 202197)
Procedure: Procedures for forming the methylotrophic bacterium 18 within the bioreactor 10 include, for example and without limitation, strain IMB-1 being grown aerobically in batch mode using pulsed additions of MeBr for use as an inoculum for the bioreactor. Additions of MeBr from about 0.01 to about 0.1 g were made approximately daily for several weeks. Cells (1 L) were grown to elevated density (approximately 1.5×10^8 cells/cm^3) in stoppered, 2-L flasks with rotary shaking. Growth occurred in mineral salts media containing mono- and dibasic phosphate (ΣPO4^31 '=1.4 mM) as well as sulfate and trace minerals (see e.g. Schaefer, J. K. and R. S. Oremland, Oxidation of Methyl Halides by the Facultative Methylotroph Strain IMB-1. Appl. Environ. Microbiol. 65 (1999): pp 5035-5041) the disclosure of which is hereby incorporated by reference. Media concentrations were tripled in order to provide additional nutrients and buffer capacity. Cells were grown at about 28° C. Cells were washed and re-suspended to 0.5 L in fresh media and transferred to the gas-washing bottle of the bioreactor having an initial cell density approximately equal to 3×10^8 cells/cm^3. Once the methylotrophic bacterium 18 constitutes part of the biofilter 16, the methyl halide is pumped from the reservoir 14 to the biofilter 16 for direct oxidation.
The biofilter 16 includes a mass of methylotrophic bacteria 18 within a container for bio-degradation of the methyl halides 30. The biofilter 16 constitutes the active surface of the bioreactor 10. The initial cell density was 3×10^8 cells/cm^3. The peristaltic pump 12 was used to circulate the methyl halide 30 gas in this system at a flow rate of 0.2 liter/min through inert rubber tubing (Pharmed), manufactured by Cole Parmer of Vernon Hills, Ill., and having 0.4 cm I.D. Stainless steel tubing (0.4 cm I.D.) was used to connect the components of the bioreactor 10. Methane (CH4) was added (3.2 g/m^3) to serve as a control and an internal standard.
A closed-system bioreactor was built using the general design of FIG. 1 and employed for testing on a laboratory bench. The bioreactor was started with 0.5 L of growing culture of methylotrophic bacteria strain IMB-1 and removed MeBr at fumigation concentrations (>17 g/m^3) from re-circulating air. Strain IMB-1 grew to high cell densities (5×10^9 cells/cm^3) in the bioreactor within several days using pulsed additions of MeBr as the sole carbon and energy source. The addition of the MeBr was done as a gas. Bacterial oxidation of MeBr produced CO2 and hydrobromic acid (HBr) which could be neutralized by addition of NaOH. Strain IMB-1 was capable of sustained oxidation of large amounts of MeBr (16 g in 46 days). […] Oxidation of MeBr was unaffected by the presence of elevated dissolved solutes (>26 g/kg) that approached the salinity of seawater. Strain IMB-1 grown on MeBr was 7 times more efficient at removing MeBr from the headspace of flasks than cultures grown on glucose (55 vs. 8×10^−15 g MeBr/cell/hr, respectively). An open-system bioreactor having 10 L of growing culture used a continuous supply of MeBr (21.2 g/m^3 in air). Growth of strain IMB-1 was continuous and 80 g of MeBr was removed from the air supply in 15 days.

strain IMB-1 [2] = experiment: 14C-MeBr oxidation assay on washed cell suspensions; type: cell-based, strain IMB-1 (ATCC 202197); conditions: for MeBr oxidized: cells grown on the substrate indicated; for rate of MeBr oxidation, normalized for cell densities: cells grown on methylamine
[3] = 0 cells
strain IMB-1 [4] = experiment: Growth of strain IMB-1 on substrates in mineral salts medium (Balch tubes)
strain IMB-1 [5] = experiment: Batch oxidation of MeBr in bottles containing cell suspensions of strain IMB-1; type: cell-based, strain IMB-1 (ATCC 202197); parameters: MeBr Oxidation Rate per Cell: unit not given here; conditions: for CO2 Production Rate: corrected for respiration
[6] = test system: Bacillus anthracis (anthrax) and its spores; conditions: cited from earlier work
strain IMB-1 [7] = experiment: Open-system bioreactor, 10 L growing culture, continuous supply of MeBr; type: cell-based, strain IMB-1 (ATCC 202197); conditions: in 15 days; 21.2 g/m^3 MeBr in air, 10 L culture
Description: The bioreactor may be designed to maximize the rate of oxidation of methyl bromide, particularly when using strain IMB-1. For example, without limitation, a twelve (12)-liter fermenter may be used to grow 10-L of cells of IMB-1 in batch culture for flow-through. Preferably, the fermenter is used in continuous-flow mode to grow IMB-1 using 21.2 g/m^3 MeBr as the feedstock. Use of strain 1 IMB-1 in a bioreactor is used in the present invention to directly oxidize various concentrations of the methyl halide, preferably methyl bromide or methyl iodide, for example without limitation high concentrations of approximately 30,000 ppm or 125 g/m^3. Direct oxidation of methyl bromide is most preferred.
A closed-system bioreactor was built using the general design of FIG. 1 and employed for testing on a laboratory bench. The bioreactor was started with 0.5 L of growing culture of methylotrophic bacteria strain IMB-1 and removed MeBr at fumigation concentrations (>17 g/m^3) from re-circulating air. Strain IMB-1 grew to high cell densities (5×10^9 cells/cm^3) in the bioreactor within several days using pulsed additions of MeBr as the sole carbon and energy source. The addition of the MeBr was done as a gas. Bacterial oxidation of MeBr produced CO2 and hydrobromic acid (HBr) which could be neutralized by addition of NaOH. […]

[8] = substrate as electron donor / carbon and energy source
[9] = 3 × 10^7 cells/cm^3, 0.76 mg MeBr added
[10] = 3 × 10^7 cells/cm^3, 1.36 mg MeBr added
[11] = 3 × 10^7 cells/cm^3, 5.30 mg MeBr added
[12] = 3 × 10^8 cells/cm^3, 0.76 mg MeBr added
[13] = 3 × 10^8 cells/cm^3, 1.36 mg MeBr added
[14] = 3 × 10^8 cells/cm^3, 5.30 mg MeBr added
[15] = 3 × 10^9 cells/cm^3, 0.76 mg MeBr added
[16] = 3 × 10^9 cells/cm^3, 1.36 mg MeBr added
[17] = 3 × 10^9 cells/cm^3, 5.30 mg MeBr added

CBr [MeBr, methyl bromide]
time to consumption of added MeBr (strain IMB-1 [1]; 0.21 g added MeBr, by the third day of operation): ≤ 4 h | reduction of methyl bromide concentration during a single pass through the filter (strain IMB-1 [1]; after 2 weeks operation): up to 5 g/m^3 | time to removal of all added MeBr (strain IMB-1 [1]; after several equivalent additions of 9 g/m^3 MeBr): approximately 6 hours | time to removal of added MeBr (strain IMB-1 [1]; first addition of 0.21 g MeBr): 24 h | amount of MeBr oxidized (strain IMB-1 [1]; in 46 days, pulses of 0.21 g up to three times a day): 16 g and 16.2 g | time to oxidation of initial levels of methyl bromide (strain IMB-1 [1]; initial 9 g/m^3, washed cell suspensions): ≤ 24 h | MeBr oxidized (strain IMB-1 [2]): 1.4 pmol/10^6 cells/h | CO2 Production Rate ([3]; 0.76 mg MeBr added): 0 mg/day | MeBr Oxidation Rate ([3]; 0.76 mg MeBr added): 0.029 mg/day | CO2 Production Rate ([3]; 1.36 mg MeBr added): 0 mg/day | MeBr Oxidation Rate ([3]; 1.36 mg MeBr added): 0.062 mg/day | CO2 Production Rate ([3]; 5.30 mg MeBr added): 0 mg/day | MeBr Oxidation Rate ([3]; 5.30 mg MeBr added): 0.208 mg/day | growth of strain IMB-1 on the substrate (in words) (strain IMB-1 [4]; [8]): grow using MeBr as a sole source of carbon and energy | time to removal of MeBr (strain IMB-1 [5]; 0.76 mg (1.2 mM in the liquid), bottles containing 1.5×10^8 cells): ≤ 190 h | time to removal of MeBr (strain IMB-1 [5]; 0.76 mg, bottles containing 10-fold more cells): ≤ 35 h | time to removal of MeBr (strain IMB-1 [5]; 0.76 mg, bottles containing 100-fold more cells (3×10^9 cells/cm^3)): ≤ 2 h | time to oxidation of MeBr (strain IMB-1 [5]; 1.2 mM in the liquid, cells grown on MeBr (2.8×10^8 cells)): within one hour | time to remove a similar amount of MeBr (strain IMB-1 [5]; 1.2 mM in the liquid, glucose-grown cells (3.6×10^8 cells)): greater than 5 hours | time to removal of MeBr (strain IMB-1 [5]; 1.36 mg MeBr, 3×10^9 cells/cm^3): ≤ 7 h | MeBr Oxidation Rate (strain IMB-1 [5]; [9]): 0.063 mg/day | MeBr Oxidation Rate Constant (strain IMB-1 [5]; [9]): 0.083 per d | MeBr Oxidation Rate per Cell (strain IMB-1 [5]; [9]): 4.1 ×10^10 | CO2 Production Rate (strain IMB-1 [5]; [9]): 0.031 mg/day | MeBr Oxidation Rate (strain IMB-1 [5]; [10]): 0 mg/day | MeBr Oxidation Rate Constant (strain IMB-1 [5]; [10]): 0 per d | MeBr Oxidation Rate per Cell (strain IMB-1 [5]; [10]): 0 ×10^10 | CO2 Production Rate (strain IMB-1 [5]; [10]): 0.002 mg/day | MeBr Oxidation Rate (strain IMB-1 [5]; [11]): 0 mg/day | MeBr Oxidation Rate Constant (strain IMB-1 [5]; [11]): 0 per d | MeBr Oxidation Rate per Cell (strain IMB-1 [5]; [11]): 0 ×10^10 | CO2 Production Rate (strain IMB-1 [5]; [11]): 0 mg/day | MeBr Oxidation Rate (strain IMB-1 [5]; [12]): 0.555 mg/day | MeBr Oxidation Rate Constant (strain IMB-1 [5]; [12]): 0.73 per d | MeBr Oxidation Rate per Cell (strain IMB-1 [5]; [12]): 3.7 ×10^10 | CO2 Production Rate (strain IMB-1 [5]; [12]): 0.224 mg/day | MeBr Oxidation Rate (strain IMB-1 [5]; [13]): 0.180 mg/day | MeBr Oxidation Rate Constant (strain IMB-1 [5]; [13]): 0.13 per d | MeBr Oxidation Rate per Cell (strain IMB-1 [5]; [13]): 1.2 ×10^10 | CO2 Production Rate (strain IMB-1 [5]; [13]): 0.189 mg/day | MeBr Oxidation Rate (strain IMB-1 [5]; [14]): 0 mg/day | MeBr Oxidation Rate Constant (strain IMB-1 [5]; [14]): 0 per d | MeBr Oxidation Rate per Cell (strain IMB-1 [5]; [14]): 0 ×10^10 | CO2 Production Rate (strain IMB-1 [5]; [14]): 0 mg/day | MeBr Oxidation Rate (strain IMB-1 [5]; [15]): 6.53 mg/day | MeBr Oxidation Rate Constant (strain IMB-1 [5]; [15]): 8.6 per d | MeBr Oxidation Rate per Cell (strain IMB-1 [5]; [15]): 4.4 ×10^10 | CO2 Production Rate (strain IMB-1 [5]; [15]): 5.025 mg/day | MeBr Oxidation Rate (strain IMB-1 [5]; [16]): 3.52 mg/day | MeBr Oxidation Rate Constant (strain IMB-1 [5]; [16]): 2.59 per d | MeBr Oxidation Rate per Cell (strain IMB-1 [5]; [16]): 2.3 ×10^10 | CO2 Production Rate (strain IMB-1 [5]; [16]): 1.990 mg/day | MeBr Oxidation Rate (strain IMB-1 [5]; [17]): 6.07 mg/day | MeBr Oxidation Rate Constant (strain IMB-1 [5]; [17]): 1.14 per d | MeBr Oxidation Rate per Cell (strain IMB-1 [5]; [17]): 4.0 ×10^10 | CO2 Production Rate (strain IMB-1 [5]; [17]): 2.696 mg/day | MeBr removal from the headspace of flasks per cell (strain IMB-1 [5]; cultures grown on glucose): 8 ×10^−15 g MeBr/cell/hr | MeBr removal from the headspace of flasks per cell (strain IMB-1 [5]; strain IMB-1 grown on MeBr): 55 ×10^−15 g MeBr/cell/hr | killing of B. anthracis and its spores ([6]; Kolb and Schneiter 1950): kill | level at which methyl bromide functions as a microbicide and a pesticide ([6]; Schade and King 1977, tree nuts): about 25,000 ppm | amount of MeBr removed from the air supply (strain IMB-1 [7]): 80 g

CC(=O)O [acetate]
growth of strain IMB-1 on the substrate (in words) (strain IMB-1 [4]): grows

O=C(O)CC(O)(CC(=O)O)C(=O)O [citrate]
growth of strain IMB-1 on the substrate (in words) (strain IMB-1 [4]; [8]): no growth occurred

CNC [dimethylamine]
growth of strain IMB-1 on the substrate (in words) (strain IMB-1 [4]): support growth

O=CO [formate]
growth of strain IMB-1 on the substrate (in words) (strain IMB-1 [4]): no growth occurred

O=C(O)/C=C/C(=O)O [fumarate]
growth of strain IMB-1 on the substrate (in words) (strain IMB-1 [4]; [8]): no growth occurred

O=C(O)CC(O)C(=O)O (stereo not shown) [malate]
growth of strain IMB-1 on the substrate (in words) (strain IMB-1 [4]; [8]): weak growth

C [methane]
growth of strain IMB-1 on the substrate (in words) (strain IMB-1 [4]; [8]): no growth occurred

CO [methanol]
growth of strain IMB-1 on the substrate (in words) (strain IMB-1 [4]; [8]): no growth occurred

CF [methyl fluoride]
MeBr oxidized (strain IMB-1 [2]): 0.0 pmol/10^6 cells/h | metabolized by strain IMB-1 (strain IMB-1 [4]): not metabolized | effect on uptake of MeBr or growth of IMB-1 on MeBr (strain IMB-1 [4]; 2-22 μmol/tube added): did not affect | growth of strain IMB-1 on the substrate (in words) (strain IMB-1 [4]; [8]): no growth occurred

CI [methyl iodide]
rate of MeBr oxidation, normalized for cell densities (strain IMB-1 [2]; cultures incubated with 2 μmoles Mel): 1.4 pmol/10^6 cells/h | rate of MeBr oxidation, normalized for cell densities (strain IMB-1 [2]; cultures incubated with 5 μmoles Mel): 1.1 pmol/10^6 cells/h | rate of MeBr oxidation, normalized for cell densities (strain IMB-1 [2]; cultures incubated with 8 μmoles Mel): 1.1 pmol/10^6 cells/h | rate of MeBr oxidation, normalized for cell densities (strain IMB-1 [2]; cultures incubated with 10 μmoles Mel): 1.4 pmol/10^6 cells/h | MeBr oxidized (strain IMB-1 [2]): 2.4 pmol/10^6 cells/h | growth of strain IMB-1 on the substrate (in words) (strain IMB-1 [4]; [8]): Growth was also obtained

CN [monomethylamine]
growth of strain IMB-1 on the substrate (in words) (strain IMB-1 [4]; [8]): support growth

O=C(O)CCC(=O)O [succinate]
growth of strain IMB-1 on the substrate (in words) (strain IMB-1 [4]; [8]): no growth occurred

CN(C)C [trimethylamine]
growth of strain IMB-1 on the substrate (in words) (strain IMB-1 [4]; [8]): support growth
